US11459355B2, “Peptides having octopus octopressin activity and use thereof” (NATIONAL MARINE BIODIVERSITY INSTITUTE OF KOREA, priority 2018, dated 2022)

System: Octopus minor
Experiment: Analysis of bioactivity of octopressin peptide: behavior change of adult Octopus minor after injection
Assay type: in vivo
Experimental: Peptides satisfying the octopressin amino acid sequence and modification predicted in Example 4 were ordered and purchased from a peptide synthesizing company and used. A dried peptide powder was dissolved in tertiary distilled water to a concentration of 10 mg/ml, diluted 100 times of artificial seawater filtered through a 0.20 μm filter to prepare an injection solution. A disposable syringe and a 26 gauge needle were used to poke at a 1 cm deep, and the injection solution was administered in the center between the body of the head of the adult Octopus minor. The injection volume was 100 microgram/kg by weight of the Octopus minor. As a control group, Octopus minor without injection (before injection), Octopus minor injected with filtered artificial seawater only, and Octopus minor injected with octopus-derived octopressin were used. […] In addition, these behavior changes began to appear 1 to 5 minutes after injection and lasted for 10 to 20 minutes, and the effect peaked between 5 to 10 minutes after injection and lasted for 10 to 20 minutes. […] Here, the used Octopus minor were discarded without reuse.

Sequence: CFWTNCPVG (Octopressin_active peptide) [octopressin-activated peptide]
- brooding-like behavior after injection (FIG. 6B) (Octopus minor injected with octopressin): behaviors similar to the brooding behaviors
- behavior change after injection (repetitive bending and stretching of arms, social behaviors) (adult Octopus minor, injection between body and head, 100 microgram/kg, total of 12 Octopus minors, regardless of sex): had bioactivity
